Counter-ions that a name gives are not always drawn.
Key:
Format in all cases: in vivo
[1] = tested on: vertebral blood flow (VBF); experiment: Vertebral Blood Flow Increasing Activity (anesthetized dogs, intravenous); settings: anesthetized mongrel dogs; for ED50: Canis lupus familiaris, iv, increase of VBF by 1 mg/kg papaverine hydrochloride regarded as 100%, 2-5 per group, test compounds as hydrochloride; for Cerebral vessel selectivity: ratio of percent increase of VBF to FBF (femoral blood flow), i.v.
Experimental: Next, the pharmacological activity of typical compounds of this invention is explained in detail below.
- 1. Vertebral Blood Flow Increasing Activity
Mongrel dogs of both sexes weighing from 12 to 20 kg were anesthetized with sodium pentobarbital.
Vertebral blood flow (VBF) and femoral blood flow (FBF) were measured by an electromagnetic flowmeter (MFV-2100 and MFV-3100, Nihon Kohden).
Test compound solutions were injected intravenously in a volume of 0.2 ml/kg.
Also, the ratio of percent increase of VBF to FBF elicited by test compounds were indicated as an index of cerebral vessel selectivity.
The test compounds were dissolved in a physiological saline solution.
Thereafter, the resulting solution was diluted with a physiological saline solution to the desired concentration. Each study was carried out using 2-5 dogs per group.

[2] = tested on: male ICR mice; experiment: Protective Effect against Hypobaric Hypoxia; settings: Mus musculus, po, 2 h, 80 mg/kg orally, one or two hours before 210 mmHg, vehicle group (5% dimethylsulfoxide, 5% Cremophor EL) = 100, read-out: Survival time (ratio)
Experimental: (§1) Next, the pharmacological activity of typical compounds of this invention is explained in detail below. The compounds of this invention shown in Table 1 where subjected to the following test in the form of a hydrochloride to obtain the results shown in each test item.
2. Protective Effect against Hypobaric Hypoxia
Each mouse was given 80 mg/kg of test compound orally one or two hours before the mice were placed under the hypobaric condition, and the survival time was measured.
The test compounds were dissolved in a physiological saline solution. However, the test compounds Nos. 7 and 23 were dissolved in an aqueous solution containing 5% of dimethylsulfoxide and 5% of Cremophor EL, and the control compound A (flunarizine) was dissolved in a 1.5% aqueous tartaric acid solution and then they were administered. Each study was carried out using 20 mice per group.
The protective effect against hypobaric hypoxide was determined as a ratio of the survival time of the group to which the test compounds was administered to that of the group to which an aqueous solution containing 5% of dimethylsulfoxide and 5% of Cremophor EL, the latter being indicated as 100.

[3] = tested on: male ICR mice; experiment: Acute Toxicity; settings: intravenous, 25 mg/kg, three male ICR mice per group
Experimental: as §1
A test compounds were intravenously administered to a group of three male ICR mice, weighing 20 to 26 g. The mortality was determined.
The test compounds were dissolved in a physiological saline solution. However, the test compound Nos. 7, 23 and 24 were dissolved in an aqueous solution containing 10% of dimethylsulfoxide and 10% of Cremophor EL and flunarizine was dissolved in 0.1M aqueous lactic acid solution.

| Structure (SMILES) | ED50 [1] | Cerebral vessel selectivity [1] | response vs control in vivo at 80 mg/kg [2] | mortality [3] |
| --- | --- | --- | --- | --- |
| Fc1ccc(C(c2ccc(F)cc2)N2CCN(C/C=C/c3ccccc3)CC2)cc1 [Control compd. A, Flunarizine dihydrochloride, reference compound] | 0.28 mg/kg | 2.1 | 61% | no death case was found |
| C(=C\c1ccccc1)/CN1CCN(C2c3ccccc3CCc3ncccc32)CC1 (stereo not shown) [compound 1] | – | – | 180% | no death case was found |
| C(=C\c1ccccc1)/CN1CCN(C2c3ccccc3CCc3cnccc32)CC1 (stereo not shown) [compound 2] | 0.34 mg/kg | 8.8 | – | – |
| COc1ccc(/C=C/CN2CCN(C3c4ccccc4CCc4ncccc43)CC2)cc1OC (stereo not shown) [compound 3] | 0.3 mg/kg | 5.0 | 136% | no death case was found |
| COc1ccccc1/C=C/CN1CCN(C2c3ccccc3CCc3ncccc32)CC1 (stereo not shown) [compound 4] | 0.22 mg/kg | 3.0 | – | – |
| COc1ccc(/C=C/CN2CCN(C3c4ccccc4CCc4ncccc43)CC2)cc1 (stereo not shown) [compound 5] | 0.3 mg/kg | 8.8 | – | – |
| O=[N+]([O-])c1ccc(/C=C/CN2CCN(C3c4ccccc4CCc4ncccc43)CC2)cc1 (stereo not shown) [compound 6] | – | – | 135% | no death case was found |
| COc1ccc(/C=C/CN2CCN(C3c4ccccc4CCc4ncccc43)CC2)cc1Oc1ccccc1 (stereo not shown) [compound 7] | 0.11 mg/kg | 16.7 | 158% | no death case was found |
| COc1ccc(/C=C/CN2CCN(C3c4ccccc4CCc4ncccc43)CC2)c(OC)c1OC (stereo not shown) [compound 8] | 0.14 mg/kg | 4.5 | – | no death case was found |
| C(=C\c1ccc2c(c1)OCO2)/CN1CCN(C2c3ccccc3CCc3ncccc32)CC1 (stereo not shown) [compound 9] | 0.45 mg/kg | 6.9 | 155% | – |
| COc1ccc(/C=C/CN2CCN(C3c4ccccc4CCc4ncccc43)CC2)cc1[N+](=O)[O-] (stereo not shown) [compound 10] | 0.17 mg/kg | 9.1 | – | no death case was found |
| Clc1cccc(/C=C/CN2CCN(C3c4ccccc4CCc4ncccc43)CC2)c1 (stereo not shown) [compound 11] | – | – | 146% | no death case was found |
| Clc1ccc(/C=C/CN2CCN(C3c4ccccc4CCc4ncccc43)CC2)cc1Cl (stereo not shown) [compound 12] | 0.3 mg/kg | 5.6 | 129% | no death case was found |
| Fc1ccc(/C=C/CN2CCN(C3c4ccccc4CCc4ncccc43)CC2)cc1F (stereo not shown) [compound 13] | – | – | 148% | no death case was found |
| O=[N+]([O-])c1cccc(/C=C/CN2CCN(C3c4ccccc4CCc4ncccc43)CC2)c1 (stereo not shown) [compound 14] | 0.3 mg/kg | 3.8 | 139% | no death case was found |
| COc1cc(/C=C/CN2CCN(C3c4ccccc4CCc4ncccc43)CC2)ccc1Oc1cccnc1 (stereo not shown) [compound 15] | 0.18 mg/kg | 4.6 | – | – |
| COc1ccc(/C=C/CN2CCN(C3c4ccccc4CCc4ncccc43)CC2)cc1Oc1cccnc1 (stereo not shown) [compound 16] | 0.15 mg/kg | 3.6 | – | – |
| COc1ccc(/C=C/CN2CCN(C3c4ccccc4CCc4ncccc43)CC2)cc1N (stereo not shown) [compound 17] | – | – | 143% | no death case was found |
| Clc1cccc(/C=C/CN2CCN(C3c4ccccc4CCc4ncccc43)CC2)c1Cl (stereo not shown) [compound 18] | 0.3 mg/kg | 10.4 | – | no death case was found |
| C(=C\c1ccc2sccc2c1)/CN1CCN(C2c3ccccc3CCc3ncccc32)CC1 (stereo not shown) [compound 19] | 0.32 mg/kg | 4.1 | 138% | no death case was found |
| C(=C\c1cccc2ccsc12)/CN1CCN(C2c3ccccc3CCc3ncccc32)CC1 (stereo not shown) [compound 20] | 0.36 mg/kg | 4.1 | 142% | no death case was found |
| O=[N+]([O-])c1cccc2c(/C=C/CN3CCN(C4c5ccccc5CCc5ncccc54)CC3)cccc12 (stereo not shown) [compound 21] | 0.33 mg/kg | 3.4 | – | no death case was found |
| C1=Cc2ncccc2C(N2CCN(C/C=C/c3ccccc3)CC2)c2ccccc21 (stereo not shown) [compound 22] | 0.15 mg/kg | 5.4 | – | – |
| O=[N+]([O-])c1ccc2c(c1)C(N1CCN(C/C=C/c3ccccc3)CC1)c1ccccc1CC2 (stereo not shown) [compound 23] | 0.32 mg/kg | 5.0 | 205% | no death case was found |
| COc1ccccc1/C=C/CN1CCN(C2c3ccccc3CCc3ccc([N+](=O)[O-])cc32)CC1 (stereo not shown) [compound 24] | 0.35 mg/kg | 14.3 | – | no death case was found |
| O=[N+]([O-])c1ccc2c(c1)C(N1CCN(C/C=C/c3ccccc3)CC1)c1ccccc1SC2 (stereo not shown) [compound 25] | 0.28 mg/kg | 10.6 | – | – |
| O=[N+]([O-])c1cccc(/C=C/CN2CCN(C3c4ccccc4CCc4ccc([N+](=O)[O-])cc43)CC2)c1 (stereo not shown) [compound 26] | 0.28 mg/kg | 4.4 | – | – |
